Experimental data reported in patent publication US4129737A, “Process for the preparation of an 8-alkyl-5-oxo-5,8-dihydro-pyrido(2,3-d)pyrimidine-6-carboxylic acid” (priority 1972, dated 1978).
In brackets after ≈: the same amount, converted by molar mass. Read-outs that look alike come from different tables or passages of the source.

Assays:
Type in all cases: cell-based
Esch. Coli 95 = assay: Minimum inhibitory concentration by agar dilution, Esch. Coli 95; settings: Escherichia coli
Protocol: (§1) (a) Trypticase soya medium (T.S.A.), which is very suitable for culturing the majority of microorganisms; it has the following composition:
(§2) (b) Ordinarily nutrient agar (N.A.), which is less rich in nutrients, corresponds to the following formulation: […]
(§3) Table I gives the minimum inhibitory concentrations (expressed in μg/cm^3) for the various microorganisms tested on each medium.
(§4) The products were tested on three Gram positive microorganisms (1 to 3) […] and on 10 Gram negative microorganisms (4 to 13).
(§5) Table (II) gives the minimum inhibitory concentrations of the compounds of Examples XII to XVI, determined on the agar medium, N.A., and expressed in μg/cm^3.

Pr. mirabilis = assay: Minimum inhibitory concentration by agar dilution, Pr. mirabilis; settings: Proteus mirabilis
Protocol: as §1, §2, §3, §4, §5

B. subtilis = assay: Minimum inhibitory concentration by agar dilution, B. subtilis; settings: Bacillus subtilis
Protocol: as §1, §2, §3, §4, §5

Pr. morganii = assay: Minimum inhibitory concentration by agar dilution, Pr. morganii; settings: Morganella morganii
Protocol: as §1, §2, §3, §4, §5

Pr. vulgaris = assay: Minimum inhibitory concentration by agar dilution, Pr. vulgaris; settings: Proteus vulgaris
Protocol: as §1, §2, §3, §4, §5

Staphylococcus 209 P = assay: Minimum inhibitory concentration by agar dilution, Staphylococcus 209 P
Protocol: as §1, §2, §3, §4, §5

Bord. bronchiseptica = assay: Minimum inhibitory concentration by agar dilution, Bord. bronchiseptica; settings: Bordetella bronchiseptica
Protocol: as §1, §2, §3, §4, §5

Salm. typhi = assay: Minimum inhibitory concentration by agar dilution, Salm. typhi; settings: Salmonella enterica, 18 h
Protocol: as §1, §2, §3, §4, §5

Sh. sonnei = assay: Minimum inhibitory concentration by agar dilution, Sh. sonnei; settings: Shigella sonnei
Protocol: as §1, §2, §3, §4, §5

Streptococcus = assay: Minimum inhibitory concentration by agar dilution, Streptococcus Group A
Protocol: as §1, §2, §3, §4, §5

B. pyocyaneus A22 = assay: Minimum inhibitory concentration by agar dilution, B. pyocyaneus A22; settings: Pseudomonas aeruginosa
Protocol: as §1, §2, §3, §4, §5

Klebs. pneumoniae = assay: Minimum inhibitory concentration by agar dilution, Klebs. pneumoniae; settings: Klebsiella pneumoniae
Protocol: as §1, §2, §3, §4, §5

[1] = test system: Gram-negative microorganisms; assay: In vitro anti-microbial activity on agar media, overall; settings: in vitro
Protocol: as §4

B. pyocyaneus TUR = assay: Minimum inhibitory concentration by agar dilution, B. pyocyaneus TUR; settings: Pseudomonas aeruginosa, 37° C., 18 hours
Protocol: as §1, §2, §3, §4

[2] = 18 h, agar medium, N.A., Table II, read-out: minimum inhibitory concentration
[3] = 18 h, agar medium, N.A., Table II (Staphylococcus 20 P [sic]), read-out: minimum inhibitory concentration
[4] = read-out: minimum inhibitory concentration
[5] = A22, 18 h, agar medium, N.A., Table II, read-out: minimum inhibitory concentration
[6] = N.A. (nutrient agar, pH 6.8), 37° C., 18 hours, Table I, read-out: minimum inhibitory concentration (M.I.C.)
[7] = T.S.A. (trypticase soya medium, pH 7.3), 37° C., 18 hours, read-out: minimum inhibitory concentration (M.I.C.)
[8] = 18 h, pH 7.3, read-out: minimum inhibitory concentration (M.I.C.)
[9] = Staphylococcus, N.A. (nutrient agar, pH 6.8), 37° C., 18 hours, Table I, read-out: minimum inhibitory concentration (M.I.C.)
[10] = pH 6.8, read-out: minimum inhibitory concentration (M.I.C.)
[11] = pH 7.3, read-out: minimum inhibitory concentration (M.I.C.)
[12] = N.A. (nutrient agar, pH 6.8), Table I
[13] = T.S.A. (trypticase soya medium, pH 7.3), read-out: minimum inhibitory concentration (M.I.C.)
[14] = A22, N.A. (nutrient agar, pH 6.8), 37° C., 18 hours, Table I, read-out: minimum inhibitory concentration (M.I.C.)
[15] = A22, T.S.A. (trypticase soya medium, pH 7.3), 37° C., 18 hours, read-out: minimum inhibitory concentration (M.I.C.)

## CCN1CCN(c2ncc3c(=O)c(C(=O)O)cn(CC)c3n2)CC1 [Example XII, 2-(4'-Ethyl-piperazino)-5-oxo-8-ethyl-5,8-dihydro-pyrido(2,3-d)pyrimidine-6-carboxylic acid]
Esch. Coli 95; [2]
  MIC: 0.8 µg/mL (≈ 2.41 µM)
Pr. mirabilis; [2]
  MIC: 6.2 µg/mL (≈ 18.7 µM)
B. subtilis; [2]
  MIC: 100 µg/mL (≈ 302 µM)
Pr. morganii; [2]
  MIC: 0.8 µg/mL (≈ 2.41 µM)
Pr. vulgaris; [2]
  MIC: 0.8 µg/mL (≈ 2.41 µM)
Staphylococcus 209 P; [3]
  MIC: 1.6 µg/mL (≈ 4.83 µM)
Bord. bronchiseptica; [2]
  MIC: 100 µg/mL (≈ 302 µM)
Salm. typhi; [4]
  MIC: 0.8 µg/mL (≈ 2.41 µM)
Sh. sonnei; [2]
  MIC: 0.8 µg/mL (≈ 2.41 µM)
Streptococcus; [2]
  MIC: 3.1 µg/mL (≈ 9.35 µM)
B. pyocyaneus A22; [5]
  MIC: 100 µg/mL (≈ 302 µM)
Klebs. pneumoniae; [2]
  MIC: 0.4 µg/mL (≈ 1.21 µM)

## C=CCN1CCN(c2ncc3c(=O)c(C(=O)O)cn(CC)c3n2)CC1 [XIV, 2-(4'-Allyl-piperazino)-5-oxo-8-ethyl-5,8-dihydro-pyrido(2,3-d)pyrimidine-6-carboxylic acid]
Esch. Coli 95; [2]
  MIC: 50 µg/mL (≈ 146 µM)
Pr. mirabilis; [2]
  MIC: 6.2 µg/mL (≈ 18.1 µM)
B. subtilis; [2]
  MIC: 3.1 µg/mL (≈ 9.03 µM)
Pr. morganii; [2]
  MIC: 1.6 µg/mL (≈ 4.66 µM)
Pr. vulgaris; [2]
  MIC: 3.1 µg/mL (≈ 9.03 µM)
Staphylococcus 209 P; [3]
  MIC: 3.1 µg/mL (≈ 9.03 µM)
Bord. bronchiseptica; [2]
  MIC: 3.1 µg/mL (≈ 9.03 µM)
Salm. typhi; [4]
  MIC: 3.1 µg/mL (≈ 9.03 µM)
Sh. sonnei; [2]
  MIC: 0.8 µg/mL (≈ 2.33 µM)
Streptococcus; [2]
  MIC: 1.6 µg/mL (≈ 4.66 µM)
B. pyocyaneus A22; [5]
  MIC: 25 µg/mL (≈ 72.8 µM)
Klebs. pneumoniae; [2]
  MIC: 0.4 µg/mL (≈ 1.16 µM)

## CCn1cc(C(=O)O)c(=O)c2cnc(N3CCN(CCO)CC3)nc21 [Example VI, 2-(4-β-Hydroxyethyl-piperazino)-5-oxo-8-ethyl-5,8-dihydropyrido(2,3-d)pyrimidine-6-carboxylic acid]
Esch. Coli 95; [6]
  MIC: 1.6 µg/mL (≈ 4.61 µM)
Esch. Coli 95; [7]
  MIC: 3.1 µg/mL (≈ 8.92 µM)
Pr. mirabilis; [8]
  MIC: 12.5 µg/mL (≈ 36 µM)
Pr. mirabilis; [6]
  MIC: 3.1 µg/mL (≈ 8.92 µM)
B. subtilis; [6]
  MIC: 1.6 µg/mL (≈ 4.61 µM)
B. subtilis; [7]
  MIC: 3.1 µg/mL (≈ 8.92 µM)
[1]
  activity against Gram-negative microorganisms: particularly active against Gram-negative microorganisms
Pr. morganii; [6]
  MIC: 1.6 µg/mL (≈ 4.61 µM)
Pr. morganii; [7]
  MIC: 1.6 µg/mL (≈ 4.61 µM)
Pr. vulgaris; [6]
  MIC: 50 µg/mL (≈ 144 µM)
Pr. vulgaris; [7]
  MIC: 6.2 µg/mL (≈ 17.8 µM)
Staphylococcus 209 P; Staphylococcus, 18 h, pH 7.3, read-out: minimum inhibitory concentration (M.I.C.)
  MIC: 12.5 µg/mL (≈ 36 µM)
Staphylococcus 209 P; [9]
  MIC: 3.1 µg/mL (≈ 8.92 µM)
Bord. bronchiseptica; [6]
  MIC: 50 µg/mL (≈ 144 µM)
Bord. bronchiseptica; [7]
  MIC: > 100 µg/mL
Salm. typhi; [10]
  MIC: 12.5 µg/mL (≈ 36 µM)
Salm. typhi; [11]
  MIC: 6.2 µg/mL (≈ 17.8 µM)
B. pyocyaneus TUR; [12]
  MIC: 50 µg/mL (≈ 144 µM)
B. pyocyaneus TUR; [13]
  MIC: > 100 µg/mL
Sh. sonnei; [6]
  MIC: 1.6 µg/mL (≈ 4.61 µM)
Sh. sonnei; [7]
  MIC: 1.6 µg/mL (≈ 4.61 µM)
Streptococcus; [8]
  MIC: 12.5 µg/mL (≈ 36 µM)
Streptococcus; [6]
  MIC: 3.1 µg/mL (≈ 8.92 µM)
B. pyocyaneus A22; [14]
  MIC: 50 µg/mL (≈ 144 µM)
B. pyocyaneus A22; [15]
  MIC: > 100 µg/mL
Klebs. pneumoniae; [6]
  MIC: 0.4 µg/mL (≈ 1.15 µM)
Klebs. pneumoniae; [7]
  MIC: 1.6 µg/mL (≈ 4.61 µM)

## CCn1cc(C(=O)O)c(=O)c2cnc(N3CCN(C)CC3)nc21 [Example V, 2-(4'-Methyl-piperazino)-5-oxo-8-ethyl-5,8-dihydro-pyrido(2,3-d)pyrimidine-6-carboxylic acid]
Esch. Coli 95; [6]
  MIC: 0.8 µg/mL (≈ 2.52 µM)
Esch. Coli 95; [7]
  MIC: 6.2 µg/mL (≈ 19.5 µM)
Pr. mirabilis; [6]
  MIC: 6.2 µg/mL (≈ 19.5 µM)
Pr. mirabilis; [7]
  MIC: 6.2 µg/mL (≈ 19.5 µM)
B. subtilis; [6]
  MIC: 1.6 µg/mL (≈ 5.04 µM)
B. subtilis; [7]
  MIC: 6.2 µg/mL (≈ 19.5 µM)
[1]
  activity against Gram-negative microorganisms: particularly active against Gram-negative microorganisms
Pr. morganii; [6]
  MIC: 0.8 µg/mL (≈ 2.52 µM)
Pr. morganii; [7]
  MIC: 1.6 µg/mL (≈ 5.04 µM)
Pr. vulgaris; [6]
  MIC: 1.6 µg/mL (≈ 5.04 µM)
Pr. vulgaris; [7]
  MIC: 6.2 µg/mL (≈ 19.5 µM)
Staphylococcus 209 P; [9]
  MIC: 3.1 µg/mL (≈ 9.77 µM)
Staphylococcus 209 P; Staphylococcus, T.S.A. (trypticase soya medium, pH 7.3), 37° C., 18 hours, read-out: minimum inhibitory concentration (M.I.C.)
  MIC: 100 µg/mL (≈ 315 µM)
Bord. bronchiseptica; [6]
  MIC: 50 µg/mL (≈ 158 µM)
Bord. bronchiseptica; [7]
  MIC: 100 µg/mL (≈ 315 µM)
Salm. typhi; [10]
  MIC: 3.1 µg/mL (≈ 9.77 µM)
Salm. typhi; [11]
  MIC: 3.1 µg/mL (≈ 9.77 µM)
B. pyocyaneus TUR; [12]
  MIC: 50 µg/mL (≈ 158 µM)
B. pyocyaneus TUR; [13]
  MIC: 100 µg/mL (≈ 315 µM)
Sh. sonnei; [6]
  MIC: 0.8 µg/mL (≈ 2.52 µM)
Sh. sonnei; [7]
  MIC: 1.6 µg/mL (≈ 5.04 µM)
Streptococcus; [6]
  MIC: 25 µg/mL (≈ 78.8 µM)
Streptococcus; [7]
  MIC: 6.2 µg/mL (≈ 19.5 µM)
B. pyocyaneus A22; [14]
  MIC: 12.5 µg/mL (≈ 39.4 µM)
B. pyocyaneus A22; [15]
  MIC: 100 µg/mL (≈ 315 µM)
Klebs. pneumoniae; [6]
  MIC: 0.4 µg/mL (≈ 1.26 µM)
Klebs. pneumoniae; [7]
  MIC: 6.2 µg/mL (≈ 19.5 µM)
